For 10 compounds, mass density results are on record in the NIST ThermoML archive (doi:10.1016/j.fluid.2014.12.003).

Numbers after ± are expanded uncertainties.

One may read the mass density as mass per unit of volume.

The conditions of this series: 298.15 K; 101.33 kPa; Liquid; Vibrating tube method.
For the compound `CCCC[N+]1(C)CCCC1.N#CC(=C=[N-])C#N` [1-butyl-1-methylpyrrolidinium tricyanomethanide], the mass density is 1006.75 ± 1.3 kg/m3. `CCCC[N+]1(C)CCOCC1.N#C[C-](C#N)C#N` [4-butyl-4-methylmorpholinium tricyanomethanide]: the mass density stood at 1067.06 ± 1.3 kg/m3.

Consider `c1ccccc1` [benzene], for which the mass density is listed as 873.53 ± 1 kg/m3. As to `CCCCCCCCCCO` [decan-1-ol], the mass density is 826.38 ± 1 kg/m3. As for `CCc1ccccc1` [ethylbenzene], the figure is 862.97 ± 1 kg/m3. As for `CCCCCCC` [heptane], the figure is 679.55 ± 1 kg/m3; as for `CCCCCCO` [hexan-1-ol], 814.94 ± 1 kg/m3; as for `CCCCCCCCO` [octan-1-ol], 823.27 ± 1 kg/m3. To `c1ccsc1` [thiophene] belongs 1058.48 ± 1 kg/m3; to `Cc1ccccc1` [toluene], 863.67 ± 1 kg/m3.
